Source: paper PMC8126888 (RSC Medicinal Chemistry, 2020)
Where two headings read alike, the source gives them in different places.

Columns and labels:
[1] = in vitro; conditions: human, HFF-1 cells
[2] = in vitro; conditions: human, microsomes, pH 7.4, HLM CLint (uL/min/mg), human liver microsomes
[3] = in vitro; conditions: mouse, microsomes, pH 7.4, MLM CLint (uL/min/mg), mouse liver microsomes
[4] = system: primary peritoneal mouse macrophages (PMM); assay: cells; conditions: Macrophage, read-out: PMM IC50 (uM)
[5] = in vitro; conditions: human
[6] = system: Trypanosoma cruzi, Tulahuen CL2, beta-galactosidase strain; assay: microbe, parasite or virus in culture; conditions: MRC5, read-out: T. cruzi Tulahuen C4 (LacZ) IC50 (uM)
[7] = system: Leishmania infantum MHOM/MA(BE)/67/ITMAP263 intracellular amastigotes; assay: microbe, parasite or virus in culture; conditions: Macrophage, in Mus musculus
[8] = in vitro; conditions: PAMPA
[9] = physchem; conditions: HPLC, Ascentis Express RP Amide column, pH 7.4, eLogD, experimental
[10] = in vitro; conditions: human, HepG2 cells
[11] = read-out: L. Inf. pIC50, from L. infantum intracellular amastigote IC50 (converted)
[12] = read-out: L. infantum MHOM/MA(BE)/67/ITMAP263 intracellular amastigotes IC50 (uM), intracellular amastigotes

Compound | CC50 [1] | microsomal CLint at 0.5 μM [2] | microsomal CLint at 0.5 μM [3] | IC50 [4] | CC50 at 3 days [5] | IC50 [6] | IC50 [7, 11] | IC50 [7, 12] | Papp [8] | chromatographic logD [9] | CC50 [10]
O=S(=O)(c1cccnc1N1CCOCC1)N(Cc1ccc(F)cc1)Cc1ccc(F)cc1 [DNDI0003389119] | 29.4 µM | 823 µL/min/mg | 738 µL/min/mg | > 64 µM | > 64 µM | 15.1 µM | 2.82 µM | 2.83 µM | 3.63 ×10⁻⁶ cm/s | 4.5 | > 64 µM
COc1ccc(C(=O)N2CCOCC2)cc1S(=O)(=O)N(Cc1ccc(F)cc1)CC(C)C [DNDI0003389127] | 8.25 µM | 543 µL/min/mg | 355 µL/min/mg | > 64 µM | > 64 µM | 39.1 µM | 6.92 µM | 6.86 µM | 17.7 ×10⁻⁶ cm/s | – | > 64 µM
COc1ccc(C#N)cc1S(=O)(=O)N(Cc1ccc(F)cc1)C1CCOCC1 [DNDI0003388084] | 44.1 µM | 194 µL/min/mg | 253 µL/min/mg | > 64 µM | > 64 µM | 53.1 µM | > 64 µM | > 64 µM | 12.7 ×10⁻⁶ cm/s | – | > 64 µM
COc1ccccc1S(=O)(=O)N(Cc1ccccc1)CC(O)c1ccc(F)cc1 (centres unmarked) [DNDI0003389317] | 10.5 µM | 610 µL/min/mg | 1240 µL/min/mg | > 64 µM | 40.7 µM | 26.6 µM | 11.5 µM | 11.6 µM | 11.8 ×10⁻⁶ cm/s | 4.1 | > 64 µM
O=S1(=O)c2cc(F)ccc2OCC(c2ccc(F)cc2)N1Cc1ccccc1 (centres unmarked) [DNDI0003389122] | 12.1 µM | – | – | 16 µM | > 64 µM | > 64 µM | 10.2 µM | 10.2 µM | – | 4.9 | > 64 µM
COCCN(Cc1ccc(F)cc1)S(=O)(=O)c1cc(C(=O)N2CCOCC2)ccc1OC [DNDI0003392125] | – | 28 µL/min/mg | 60 µL/min/mg | > 64 µM | 22.7 µM | > 64 µM | 22.4 µM | 22.5 µM | 15.4 ×10⁻⁶ cm/s | – | –
COc1ccc(CN(Cc2ccc(F)cc2)S(=O)(=O)c2cc(F)ccc2OCC[N+](C)(C)CC(=O)O)cc1 [DNDI0003389931] | 61.1 µM | 14 µL/min/mg | 17 µL/min/mg | > 64 µM | > 64 µM | 13.1 µM | > 64 µM | > 64 µM | 0.36 ×10⁻⁶ cm/s | 3.8 | > 64 µM
COc1ccc(OC)c(S(=O)(=O)N(Cc2ccc(F)cc2)Cc2ccc(C#N)cc2)c1 [DNDI0003388088] | 51.9 µM | 87 µL/min/mg | – | > 64 µM | > 64 µM | 19 µM | 18.6 µM | 18.6 µM | 3.57 ×10⁻⁶ cm/s | 4.1 | 36.2 µM
CN(C)c1ncccc1S(=O)(=O)N(Cc1ccc(F)cc1)Cc1ccc(F)cc1 [DNDI0003389117] | 16.7 µM | 728 µL/min/mg | 903 µL/min/mg | > 64 µM | 42.7 µM | 12.6 µM | 6.03 µM | 5.99 µM | 1.18 ×10⁻⁶ cm/s | 4.6 | 56.7 µM
COc1ccc(-c2nc(C)no2)cc1S(=O)(=O)N(Cc1ccc(F)cc1)Cc1ccc(F)cc1 [DNDI0003388085] | 38.6 µM | 177 µL/min/mg | 739 µL/min/mg | > 64 µM | > 64 µM | > 64 µM | 5.62 µM | 5.68 µM | 1.74 ×10⁻⁶ cm/s | 4.6 | > 64 µM
COc1ccc(N2CCOCC2)cc1S(=O)(=O)N(Cc1ccc(F)cc1)Cc1ccc(F)cc1 [DNDI0003389118] | 15.2 µM | 82 µL/min/mg | 488 µL/min/mg | > 64 µM | > 64 µM | 7.91 µM | 0.324 µM | 0.32 µM | 2.55 ×10⁻⁶ cm/s | 4.3 | > 64 µM
N#Cc1ccccc1S(=O)(=O)N(Cc1ccccc1)Cc1ccccc1 [DNDI0003389641] | 1.28 µM | 577 µL/min/mg | – | > 64 µM | > 64 µM | 18.4 µM | 11.2 µM | 11.3 µM | 1.66 ×10⁻⁶ cm/s | 4.2 | > 64 µM
